Assays:
[1] = test system: ABUTH (Abutilon theophrasti); assay: Postemergence herbicidal evaluation; assay type: in vivo, Medic.
In short: (§1)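 Seedlings grown about two weeks in flats, sprayed, then kept under standard greenhouse care. Rated visually 4–5 weeks after treatment on a 0–9 scale (stand, vigour, malformation, size, chlorosis, overall appearance) relative to untreated control; repeat tests averaged.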

[2] = test system: AMBEL (Ambrosia artemisifolia); assay: Preemergence herbicidal evaluation; assay type: in vivo, L.; settings: rated 4-5 weeks after treatment
In short: (§2)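 Applied before emergence as an aqueous acetone spray over seeded soil. Read-out: 0–9 visual rating covering plant stand, vigor, size, chlorosis, malformation and overall appearance compared with control, taken 4–5 weeks after spraying.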

[3] = test system: CHEAL (Chenopodium album); assay: Preemergence herbicidal evaluation; assay type: in vivo, L.; settings: rated 4-5 weeks after treatment
In short: as §2

[4] = test system: CASOB (Cassia obtusifolia); assay: Preemergence herbicidal evaluation; assay type: in vivo, L.; settings: rated 4-5 weeks after treatment
In short: as §2

ORYSAT (Rice, Tebonnet) [5] = assay: Preemergence herbicidal evaluation; assay type: in vivo, Oryza sativa, (L.) Tebonnet; settings: rated 4-5 weeks after treatment
[6] = test system: ECHCG (Echinochloa crus-galli); assay: Postemergence herbicidal evaluation; assay type: in vivo, (L.) Beau
In short: as §1

[7] = test system: TRZAWR (Wheat, Winter, cv Riband); assay: Preemergence herbicidal evaluation; assay type: in vivo, Triticum aestivum; settings: rated 4-5 weeks after treatment
In short: as §2

[8] = test system: SAGPY (Sagittaria pygmaea); assay: Flooded paddy, preemergence weed control; assay type: in vivo, L.; settings: rated 3-4 weeks after treatment, 0-9 rating scale
In short: (§3)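 Preemergence, flooded: propagules planted at 0.5 cm depth in silt loam, water level maintained at 1.5 to 3 cm over soil, containers kept on greenhouse benches. Activity scored 0-9 by eye relative to a control plant.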

ZEAMX (Corn, Field) = assay: Postemergence herbicidal evaluation; assay type: in vivo, Zea mays, L.
In short: as §1

[9] = test system: CYPSE (Cyperus serotinus); assay: Flooded paddy, preemergence weed control; assay type: in vivo, Rottb.; settings: rated 3-4 weeks after treatment, 0-9 rating scale
In short: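 Herbicidal effect was scored visually on a 0–9 scale against an untreated control 3–4 weeks after treatment. Compounds were applied preemergence as 50/50 v/v aqueous/acetone mixtures into flood water (1.5–3 cm deep over silt loam), at roughly 0.0080 to 0.1250 kg/ha active ingredient.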

[10] = test system: IPOHE (Ipomoea hederacea); assay: Postemergence herbicidal evaluation; assay type: in vivo, (L.) Jacq.
In short: as §1

[11] = test system: AMBEL (Ambrosia artemisifolia); assay: Postemergence herbicidal evaluation; assay type: in vivo, L.
In short: as §1

[12] = test system: CHEAL (Chenopodium album); assay: Postemergence herbicidal evaluation; assay type: in vivo, L.
In short: as §1

[13] = test system: CASOB (Cassia obtusifolia); assay: Postemergence herbicidal evaluation; assay type: in vivo, L.
In short: as §1

ORYSAT (Rice, Tebonnet) [14] = assay: Postemergence herbicidal evaluation; assay type: in vivo, Oryza sativa, (L.) Tebonnet
In short: as §1

ORYSAT (Rice, Tebonnet) [15] = assay: Flooded paddy, post-transplant rice tolerance; assay type: in vivo, Oryza sativa, (L.) Tebonnet; settings: flooded paddy, post-transplant rice, rated 3-4 weeks after treatment, 0-9 rating scale
In short: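 Seedlings aged ten days are transplanted in pairs into undrained pots of silt loam, which are then flooded to a depth of 1.5 to 3 cm. After herbicide application the pots are kept in a greenhouse with the flood maintained. Plants are rated 0-9 by visual comparison with controls.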

[16] = test system: TRZAWR (Wheat, Winter, cv Riband); assay: Postemergence herbicidal evaluation; assay type: in vivo, Triticum aestivum
In short: as §1

[17] = test system: ABUTH (Abutilon theophrasti); assay: Preemergence herbicidal evaluation; assay type: in vivo, Medic.; settings: rated 4-5 weeks after treatment
[18] = test system: ECHORC (Echinochloa oryzoides); assay: Flooded paddy, preemergence weed control; assay type: in vivo, Echinochloa oryzoides (Ard.) Fritsch.; settings: rated 3-4 weeks after treatment, 0-9 rating scale
In short: as §3

C[C@H]1OC(c2nsc3ccc(-n4c(=O)cc(C(F)(F)F)n(C)c4=O)cc23)O[C@@H]1C [Compound 48, 3-[3-[(4R,5R)-4,5-dimethyl-1,3-dioxolan-2-yl]-1,2-benzisothiazol-5-yl]-1-methyl-6-(trifluoromethyl)uracil]
4.5: Postemergence herbicidal rating, ZEAMX (ZEAMX (Corn, Field); rate 0.0320 kg/ha)
5.0: Preemergence herbicidal rating CASOB ([4]; Rate 0.0620 kg/ha) | Postemergence herbicidal rating, ECHCG ([6]; rate 0.0320 kg/ha) | herbicidal rating, ORYSAT (rice tolerance) (ORYSAT (Rice, Tebonnet) [15]; rate 0.0080 kg/ha) | Postemergence herbicidal rating, TRZAWR ([16]; rate 0.0320 kg/ha)
8.0: Preemergence herbicidal rating ORYSAT (ORYSAT (Rice, Tebonnet) [5]; Rate 0.1250 kg/ha) | Preemergence herbicidal rating TRZAWR ([7]; Rate 0.1250 kg/ha) | Preemergence herbicidal rating TRZAWR ([7]; Rate 0.2500 kg/ha) | herbicidal rating, ORYSAT (rice tolerance) (ORYSAT (Rice, Tebonnet) [15]; rate 0.0320 kg/ha) | herbicidal rating, ECHORC ([18]; rate 0.0080 kg/ha)
0.0: herbicidal rating, SAGPY ([8]; rate 0.0080 kg/ha)
9.0: Postemergence herbicidal rating, ABUTH ([1]; rate 0.0320 kg/ha) | Postemergence herbicidal rating, ABUTH ([1]; rate 0.0620 kg/ha) | Preemergence herbicidal rating AMBEL ([2]; Rate 0.0620 kg/ha) | Preemergence herbicidal rating AMBEL ([2]; Rate 0.1250 kg/ha) | Preemergence herbicidal rating AMBEL ([2]; Rate 0.2500 kg/ha) | Preemergence herbicidal rating CHEAL ([3]; Rate 0.0620 kg/ha) | Preemergence herbicidal rating CHEAL ([3]; Rate 0.1250 kg/ha) | Preemergence herbicidal rating CHEAL ([3]; Rate 0.2500 kg/ha) | Preemergence herbicidal rating CASOB ([4]; Rate 0.2500 kg/ha) | Preemergence herbicidal rating ORYSAT (ORYSAT (Rice, Tebonnet) [5]; Rate 0.2500 kg/ha) | herbicidal rating, SAGPY ([8]; rate 0.1250 kg/ha) | herbicidal rating, CYPSE ([9]; rate 0.0320 kg/ha) | herbicidal rating, CYPSE ([9]; rate 0.1250 kg/ha) | Postemergence herbicidal rating, IPOHE ([10]; rate 0.0320 kg/ha) | Postemergence herbicidal rating, IPOHE ([10]; rate 0.0620 kg/ha) | Postemergence herbicidal rating, AMBEL ([11]; rate 0.0320 kg/ha) | Postemergence herbicidal rating, AMBEL ([11]; rate 0.0620 kg/ha) | Postemergence herbicidal rating, CHEAL ([12]; rate 0.0320 kg/ha) | Postemergence herbicidal rating, CHEAL ([12]; rate 0.0620 kg/ha) | herbicidal rating, ORYSAT (rice tolerance) (ORYSAT (Rice, Tebonnet) [15]; rate 0.1250 kg/ha) | Preemergence herbicidal rating ABUTH ([17]; Rate 0.0620 kg/ha) | Preemergence herbicidal rating ABUTH ([17]; Rate 0.1250 kg/ha) | Preemergence herbicidal rating ABUTH ([17]; Rate 0.2500 kg/ha) | herbicidal rating, ECHORC ([18]; rate 0.0320 kg/ha) | herbicidal rating, ECHORC ([18]; rate 0.1250 kg/ha)
7.5: Preemergence herbicidal rating CASOB ([4]; Rate 0.1250 kg/ha) | Preemergence herbicidal rating ORYSAT (ORYSAT (Rice, Tebonnet) [5]; Rate 0.0620 kg/ha) | herbicidal rating, SAGPY ([8]; rate 0.0320 kg/ha)
5.7: Postemergence herbicidal rating, ZEAMX (ZEAMX (Corn, Field); rate 0.0620 kg/ha) | Postemergence herbicidal rating, TRZAWR ([16]; rate 0.0620 kg/ha)
7.0: Postemergence herbicidal rating, CASOB ([13]; rate 0.0620 kg/ha)
3.0: Postemergence herbicidal rating, ECHCG ([6]; rate 0.0620 kg/ha)
1.0: Postemergence herbicidal rating, CASOB ([13]; rate 0.0320 kg/ha)
5.5: Postemergence herbicidal rating, ORYSAT (ORYSAT (Rice, Tebonnet) [14]; rate 0.0320 kg/ha)
6.0: Preemergence herbicidal rating TRZAWR ([7]; Rate 0.0620 kg/ha) | Postemergence herbicidal rating, ORYSAT (ORYSAT (Rice, Tebonnet) [14]; rate 0.0620 kg/ha)

From patent US6706663B2, “Herbicidal 3-heterocyclic substituted benzisothiazole and benzisoxazole compounds” (Wyeth, priority 2000, dated 2004)
